Data reported in article PMC3792487 (Science (New York, N.Y.), 2012).

Target: dihydropteroate synthase (DHPS, FolP1) (Mycobacterium tuberculosis, UniProt P9WND1)
Format: biochemical

Chain of dihydropteroate synthase (DHPS, FolP1) (P9WND1 whole entry): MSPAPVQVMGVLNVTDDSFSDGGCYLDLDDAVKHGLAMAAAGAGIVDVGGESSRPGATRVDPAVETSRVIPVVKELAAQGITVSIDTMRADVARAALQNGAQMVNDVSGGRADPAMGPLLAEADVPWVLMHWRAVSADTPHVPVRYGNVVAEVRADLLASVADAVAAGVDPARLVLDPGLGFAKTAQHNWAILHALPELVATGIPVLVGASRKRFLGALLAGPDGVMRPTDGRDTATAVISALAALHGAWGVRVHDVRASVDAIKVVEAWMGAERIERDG

Nc1ccc(C(=O)O)c(O)c1 [PAS, para-aminosalicylic acid]
in vitro turnover assay with purified recombinant enzyme: purified recombinant enzymes confirmed that PAS was a kinetically and chemically competent substrate for M. tuberculosis FolP1
